Experimental data from patent US7842710B2, “Carboxamides” (Bayer Cropscience AG, priority 2004, dated 2010).

Key:
Alternaria solani = assay: Alternaria test (tomato)/protective; format: in vivo; conditions: protective, application rate 750 g/ha, evaluation seven days after inoculation, 0% = control, 100% = no infestation
Experimental: [table] To produce an appropriate active ingredient preparation, one part by weight of the active substance is mixed with the specified quantities of solvent and emulsifying agent, and the concentrate is diluted with water to the desired concentration. Young tomato plants are sprayed with the active ingredient preparation at the specified application rate to test the effectiveness of protection. One day after treatment, the plants are inoculated with a spore suspension of Alternaria solani and are kept for 24 hours at 100% relatively humidity and 20° C. Subsequently, the plants are kept at 96% relatively humidity and a temperature of 20° C. The evaluation is performed seven days after the inoculation. A degree of effectiveness rating of 0% corresponds to the control, with 100% indicating no infestation observed.

Venturia inaequalis = assay: Venturia test (apple)/protective; format: in vivo; conditions: protective, application rate 100 g/ha, evaluation ten days after inoculation, 0% = control, 100% = no infestation
Experimental: (§1) [table] To produce an appropriate active ingredient preparation, one part by weight of the active substance is mixed with the specified quantities of solvent and emulsifying agent, and the concentrate is diluted with water to the desired concentration. Young plants are sprayed with the active ingredient preparation at the specified application rate to test the effectiveness of protection. After the sprayed coating has dried, the plants are inoculated with an aqueous conidia suspension of the apple scab pathogen Venturia inaequalis and are then kept in an incubator at 20° C. and 100% relatively humidity for one day. Then the plants are placed in the greenhouse at about 21° C. with relative humidity of about 90%. The evaluation is performed ten days after the inoculation. A degree of effectiveness rating of 0% corresponds to the control, with 100% indicating no infestation observed.

Botrytis cinerea = assay: Botrytis test (bean)/protective; format: in vivo; conditions: protective, application rate 500 g/ha, evaluation two days after inoculation, 0% = control, 100% = no infestation
Experimental: [table] To produce an appropriate active ingredient preparation, one part by weight of the active substance is mixed with the specified quantities of solvent and emulsifying agent, and the concentrate is diluted with water to the desired concentration. Young plants are sprayed with the active ingredient preparation at the specified application rate to test the effectiveness of protection. After the sprayed coating has dried, two small pieces of agar with cultured Botrytis cinerea are placed on each leaf. The inoculated plants are placed in a darkened chamber at about 20° C. and 100% relatively humidity. Two days after the inoculation, the size of the infestation spots on the leaves is evaluated. A degree of effectiveness rating of 0% corresponds to the control, with 100% indicating no infestation observed.

Podosphaera leucotricha = assay: Podosphaera test (apple)/protective; format: in vivo; conditions: protective, application rate 100 g/ha, evaluation ten days after inoculation, 0% = control, 100% = no infestation
Experimental: as §1, with “spore” for “conidia”, “mildew” for “scab”, “Podosphaera leucotricha.” for “Venturia inaequalis and are then kept in an incubator at 20° C. and 100% relatively humidity for one day.”, “23°” for “21°”, “70%.” for “90%.”

[1] = logP determination by HPLC on a reverse phase column (C18), EEC Directive 79/831 Annex V.A8; format: physicochemical; conditions: pH 2 as printed, HPLC C18, 43° C.

CCC(C)SC(C)c1ccccc1NC(=O)c1c(C)nn(C)c1F (stereo not shown) [drawing 517]
Degree of effectiveness in % (Alternaria solani): 95%

CCC(C)SC(C)c1ccccc1NC(=O)c1cn(C)nc1C(F)F (stereo not shown) [drawing 487]
Degree of effectiveness in % (Venturia inaequalis): 99%

CC(C)OCc1ccccc1NC(=O)c1cn(C)nc1C(F)(F)F [drawing 515]
Degree of effectiveness in % (Alternaria solani): 95%

Cc1nn(C)c(F)c1C(=O)Nc1ccccc1C(C)SC(C)C (stereo not shown) [drawing 516]
Degree of effectiveness in % (Alternaria solani): 90%

CC(C)SC(C)c1ccccc1NC(=O)c1cn(C)nc1C(F)(F)F (stereo not shown) [drawing 488]
Degree of effectiveness in % (Botrytis cinerea): 84%

Cc1nn(C)c(F)c1C(=O)Nc1ccccc1C(C)SC(C)C (stereo not shown) [drawing 482]
Degree of effectiveness in % (Podosphaera leucotricha): 91%

CC(C)SC(C)c1ccccc1NC(=O)c1cn(C)nc1C(F)F (stereo not shown) [drawing 489]
Degree of effectiveness in % (Botrytis cinerea): 100%

CCC(C)SC(C)c1ccccc1NC(=O)c1cn(C)nc1C(F)F (stereo not shown) [drawing 484]
Degree of effectiveness in % (Podosphaera leucotricha): 94%

CCCC(C)SC(C)c1ccccc1NC(=O)c1cn(C)nc1C(F)F (stereo not shown) [drawing 492]
Degree of effectiveness in % (Botrytis cinerea): 97%

Cc1nn(C)c(F)c1C(=O)Nc1ccccc1C(C)SC(C)C (stereo not shown) [drawing 485]
Degree of effectiveness in % (Venturia inaequalis): 95%

CCCC(C)SC(C)c1ccccc1NC(=O)c1sc(C)nc1C(F)(F)F (stereo not shown) [drawing 486]
Degree of effectiveness in % (Venturia inaequalis): 89%

CC(C)S(=O)(=O)C(C)c1ccccc1[N+](=O)[O-] (stereo not shown) [VII-4, 1-[1-(isopropylsulfonyl)ethyl]-2-nitrobenzene]
chromatographic logP [1]: 1.99

CC(C)SC(C)c1ccccc1NC(=O)c1cn(C)nc1C(F)F (stereo not shown) [drawing 483]
Degree of effectiveness in % (Podosphaera leucotricha): 84%
